# Tests used:
# [1] = tested on: late-stage ovarian cancer; experiment: Example 2: rectal dehydroequol with intravenous carboplatin in a patient with platin- and taxane-refractory late-stage ovarian cancer; type: in vivo, human; settings: stated objective; dehydroequol 400 mg every 12 hours rectally for 7 days + carboplatin AUC 6 iv on Day 2, every 28 days, 6 courses
# Excerpt: A patient with late-stage ovarian cancer. Previously treated intravenously with multiple rounds of carboplatin and paclitaxel and now displaying multi-drug resistance by showing disease progression while undergoing combined therapy with carboplatin/paclitaxel. This patient meets the definition of platin- and taxane-refractory disease.
# The patient is showing multiple tumours throughout the abdominal cavity and is suffering failing health although still considered sufficiently robust to withstand further cytotoxic chemotherapy were it considered likely to provide a benefit.
# The patient is treated with 400 mg of dehydroequol every 12 hours for 7 consecutive days. The dehydroequol is administered rectally in a solid 2 gram suppository dosage form in a theobroma oil base.
# Carboplatin is injected intravenously at a dosage equivalent to an AUC of 6 on Day 2 of the 7-day dehydroequol treatment regimen.
# This regimen is repeated every 28 days for a total of 6 courses of treatment.
# [2] = tested on: castrate-resistant metastatic prostate cancer; experiment: Example 3: docetaxel course, with or without rectal dehydroequol as adjuvant, in castrate-resistant metastatic prostate cancer; type: in vivo, human; settings: stated objective; dehydroequol 400 mg once daily rectally for 7 days as adjuvant to docetaxel 175 mg/m2 iv every 21 days
# Procedure: A patient with castrate-resistant metastatic prostate cancer with secondary cancers in several inguinal lymph nodes and multiple bones (thoracic vertebrae, femur, ribs, humerus). Having progressed on hormone-ablation therapy, the standard next step for this patient is to receive a course of treatment with docetaxel involving an intravenous injection of a dosage of […] over 3 hours every 21 days for 18 weeks.
# Dehydroequol is administered as adjuvant therapy at a dosage of 400 mg once daily for 7 consecutive days commencing on the day prior to the administration of docetaxel and repeated for the duration of the course of docetaxel therapy. The dehydroequol is administered rectally in a solid 2 gram suppository dosage form in a theobroma oil base.
# [3] = tested on: castrate-resistant metastatic prostate cancer; settings: docetaxel alone, standard course; response = complete remission, partial remission or no disease progression; cited from earlier work
SMILES,prolong the survival of the patient (additional) [1] [months],response rate (objective) [2],response rate (reported) [3] [%]
"Oc1ccc(C2=Cc3ccc(O)cc3OC2)cc1 [dehydroequol, 2H-1-Benzopyran-7-0,1,3-(4-hydroxyphenyl)]",12,40-100%,
CC(=O)O[C@@]12CO[C@@H]1C[C@H](O)[C@@]1(C)C(=O)[C@H](O)C3=C(C)[C@@H](OC(=O)[C@H](O)[C@@H](NC(=O)OC(C)(C)C)c4ccccc4)C[C@@](O)([C@@H](OC(=O)c4ccccc4)[C@H]21)C3(C)C [docetaxel],,,30

# — US20190117620A1, “CHEMOTHERAPY IMPROVEMENTS” (NOXOPHARM LIMITED, priority 2016, published 2019)
